Results reported in patent publication US8969350B2, “Pharmaceutical product comprising a p38 kinase inhibitor and a second active ingredient” (Astrazeneca AB, priority 2008, dated 2015).
Where a name gives a salt, the structure may show the parent alone. Read-outs that look alike come from different tables or passages of the source.

Tests used:
[1] = system: LPS stimulated TNFα production from human PBMC; test: Inhibition of LPS-induced TNFα production in human peripheral blood mononuclear cells (FLISA); format: cell-based; settings: Compound A alone, n=17, read-out: pIC50 for inhibition of LPS-induced TNFα production from human PBMC (converted)
Description: After the pre-incubation period, the cells were then incubated with LPS (1 μg/mL) for 4 hr at 37° C. to induce TNFα production. The total assay volume was 200 μL. At the end of the incubation period, 25 μL of the culture supernatant was analysed to quantify the TNFα released using a Flourescence-linked immunosorbance assay (FLISA). Fluorescence levels were read on an FMAT plate reader. Inhibition curves were fitted using a 4-parameter logistic equation in a non-linear curve fitting routine and activity was expressed as pIC50.

[2] = system: guinea pig trachea; test: Guinea-pig isolated tracheal ring, Protocol A: relaxation of methacholine pre-contracted rings; settings: mean ± s.e. mean, n=4; for EC50: Cavia porcellus
Description: (§1) Guinea-pigs (300-600 g) were killed by cervical dislocation and the trachea removed. After clearing the adherent connective tissue, the trachea was cut into segments (2-3 cartilage rings in width) and suspended in 10 ml organ baths containing modified Krebs' solution (mM; NaCl, 90; NaHCO3, 45; KCl, 5; MgSO4.7H2O, 0.5; Na2HPO4.2H2O, 1; CaCl2, 2.25; glucose, 10; pH 7.4, gassed with 5% CO2, 95% O2 at 37° C.). The tracheal rings were attached to an isometric force transducer for the measurement of isometric tension. The tissues were washed and a force of 1 g was applied to each tissue.
(§2) Protocol A: The rings were pre-contracted with methacholine (1 μM) and a cumulative (0.3 nM-3 μM) isoprenaline concentration effect curve constructed. The rings were washed and either Compound A (4 nM) or vehicle was added. The rings were then contracted with a second concentration of methacholine (1 μM). Once the contraction had reached a plateau cumulative concentration response curves to Compound C (0.1 nM-1 μM), Compound E (1 nM-1 μM) or Compound H (0.1 nM-1 μM) were constructed. Data were collected using the ADInstruments chart4 software, the maximum tension generated at each concentration of agonist was recorded and the response expressed as percentage relaxation (mean±s.e.mean). The data was fitted to a four parameter logistic and a potency value (pEC50) generated (expressed as mean±s.e.mean). Protocol B: A cumulative concentration effect curve to methacholine (3 nM-30 μM) was constructed and then the tissue was washed. […] A second extended cumulative concentration response curve to methacholine was constructed (3 nM-1 mM). Data were collected using the ADInstruments chart4 software, the maximum tension generated at each concentration of agonist was recorded and the results were expressed as percentage of the maximum response measured in the first curve.

[3] = system: guinea pig trachea; test: Guinea-pig isolated tracheal ring, Protocol B: shift of methacholine concentration response curve (apparent pA2); settings: mean ± s.e. mean, n=4; for pA2 in the presence of Compound A: apparent pA2 vs methacholine in the presence of Compound A (4 nM); for pA2 value: apparent pA2 vs methacholine, compound alone, Schild plot slope of 1 assumed
Description: as §1
as §2, with “Once the contraction had reached a plateau cumulative concentration response curves to Compound C (0.1 nM-1 μM), Compound E (1 nM-1 μM) or Compound H (0.1 nM-1 μM) were constructed.” left out

[4] = Water uptake by gravimetric vapour sorption (GVS); format: physicochemical; settings: between RH of 0%-80%, as measured by GVS
Description: GVS profiles were measured using a Dynamic Vapour Sorption DVS-1 instrument. The solid sample ca. 1-5 mg was placed into a glass vessel and the weight of the sample was recorded during a dual cycle step method (40 to 90 to 0 to 90 to 0% relative humidity (RH), in steps of 10% RH).

[5] = compound alone (vehicle), relaxation of rings contracted with methacholine 1 μM, read-out: pEC50 value (converted)

Q: With `CNCCOc1ccccc1C1(Nc2nccn(-c3cc(C(=O)NC4CC4)cc(F)c3C)c2=O)CC1` [Compound A, N-cyclopropyl-3-fluoro-4-methyl-5-[3-[[1-[2-[2-(methylamino)ethoxy]phenyl]cyclopropyl]amino]-2-oxo-pyrazin-1-yl]benzamide] as the compound, how does the IC50 [1] read?
A: The IC50 was 0.00794 µM.

Q: For `CCN(CC)CCN(CCNCCc1ccc(O)c2[nH]c(=O)sc12)C(=O)CCOCCc1cccc2ccccc12` [Compound C, N-[2-(diethylamino)ethyl]-N-(2-{[2-(4-hydroxy-2-oxo-2,3-dihydro-1,3-benzothiazol-7-yl)ethyl]amino}ethyl)-3-[2-(1-naphthyl)ethoxy]propanamide dihydrobromide], which EC50 [2, 5] is on record?
A: The EC50 was 0.01 µM.

Q: And the pEC50 value ([2]; compound alone (vehicle), relaxation of rings contracted with methacholine 1 μM, dihydrobromide)?
A: Its pEC50 value is 8.0 ± 0.05.

Q: Which “pA2 in the presence of Compound A” value [3] does the source give for `O=C(O[C@H]1C[N+]2(CCCOc3ccccc3)CCC1CC2)C(O)(c1cccs1)c1cccs1` [Compound D, [(3R)-1-(3-phenoxypropyl)quinuclidin-1-ium-3-yl]2-hydroxy-2,2-bis(2-thienyl)acetate bromide, reference compound] here?
A: Its value is 10.5±0.07.

Q: What about the pA2 value [3] of the same compound?
A: Its pA2 value is 10.7±0.09.

Q: With `CCc1cc2c(cc1CC)CC(NC[C@H](O)c1ccc(O)c3[nH]c(=O)ccc13)C2` [Compound E, 5-[(1R)-2-[(5,6-diethylindan-2-yl)amino]-1-hydroxy-ethyl]-8-hydroxy-1H-quinolin-2-one maleate, reference compound] as the compound, how does the EC50 [2, 5] read?
A: Its EC50 is 0.0158 µM.

Q: And the EC50 ([2]; in the presence of Compound A (4 nM), rings contracted with methacholine 1 μM, read-out: pEC50 in the presence of Compound A (converted))?
A: Its EC50 is 0.02 µM.

Q: With `O=C(CCNCCc1cccc(F)c1)N(CCNCCc1ccc(O)c2[nH]c(=O)sc12)C1CCCCC1` [Compound H, N-Cyclohexyl-N^3-[2-(3-fluorophenyl)ethyl]-N-(2-{[2-(4-hydroxy-2-oxo-2,3-dihydro-1,3-benzothiazol-7-yl)ethyl]amino}ethyl)-β-alaninamide di-D-mandelate] as the compound, how does the EC50 [2, 5] read?
A: Its EC50 is 0.000631 µM.

Q: And the “pEC50 in the presence of Compound A” value ([2]; in the presence of Compound A (4 nM), rings contracted with methacholine 1 μM)?
A: The value was 9.2±0.10.

Q: Which “pA2 in the presence of Compound A” value ([3]; 4-methylbenzenesulfonate) does the source give for `C[C@@](C(=O)O[C@H]1C[N+]2(CCc3ccc(F)cc3)CCC1CC2)(c1ccccc1)N1CCCCC1` [Compound J, (R)-1-[2-(4-fluoro-phenyl)-ethyl]-3-((S)-2-phenyl-2-piperidin-1-yl-propionyloxy)-1-azonia-bicyclo[2.2.2]octane 4-methylbenzenesulfonate] here?
A: The value was 10.1±0.10.

Q: And the pA2 value ([3]; 4-methylbenzenesulfonate)?
A: Its pA2 value is 9.9±0.12.

Q: What does the source list for `O=C(C[N+]12CCC(CC1)[C@@H](OC(=O)C1(c3ccccc3)CCCCCC1)C2)Nc1ccccn1` [Compound K, ((R)-3-(1-phenyl-cycloheptanecarbonyloxy)-1-(pyridin-2-ylcarbamoylmethyl)-1-azonia-bicyclo[2.2.2]octane bromide]?
A: pA2 in the presence of Compound A [3]: 9.9±0.15; pA2 value [3]: 9.9±0.10

Q: With `C[N+]1(C)[C@@H]2C[C@@H](OC(=O)C(O)(c3cccs3)c3cccs3)C[C@H]1[C@@H]1O[C@@H]12` [Compound M, (1R,2R,4S,5S,7S)-7-{[hydroxy(dithiophen-2-yl)acetyl]oxy}-9,9-dimethy-3-oxa-9-azoniatricyclo[3.3.1.0~2,4~]nonane bromide, reference compound] as the compound, how does the “pA2 in the presence of Compound A” value [3] read?
A: The value was 12.0±0.08.

Q: With `CNCCOc1ccccc1C1(Nc2nccn(-c3cc(C(=O)NC4CC4)cc(F)c3C)c2=O)CC1` [preparation 1 crystalline form A, N-Cyclopropyl-3-fluoro-4-methyl-5-[3-[[1-[2-[2-(methylamino)ethoxy]phenyl]cyclopropyl]amino]-2-oxo-1(2H)-pyrazinyl]-benzamide Crystalline Form A] as the compound, how does the water uptake [4] read?
A: Its water uptake is 0.4%.
